ChEMBL document CHEMBL4627296, “Enhanced cellular uptake efficiency of DCM probes or SN38 conjugating with phenylboronic acids” (Bioorg Med Chem, 2020)

Key:
[1] = Drug uptake in human HepG2 cells assessed as mean fluorescence intensity at 10 uM measured after 1 hr by flow cytometry analysis (reference value: 2.74); type: ADME, cell-based; conditions: hepg2, 1 h
[2] = Drug uptake in human HepG2 cells at 10 uM measured after 1 hr by fluorescence analysis; type: ADME, cell-based; conditions: hepg2, 1 h
[3] = Solubility of the compound in water; type: physicochemical; conditions: buffer
HepG2 [4] = assay: Antiproliferative activity against human HepG2 cells assessed as inhibition of cell proliferation after 72 hrs by MTT assay; type: functional, cell-based; conditions: HepG2, 72 h
[5] = Drug metabolism in human HepG2 cells assessed as SN38 release at 10 uM measured after 24 hrs by microplate reader analysis; type: ADME, cell-based; conditions: hepg2, 24 h
[6] = Drug uptake in human A549 cells at 10 uM measured after 24 hrs by confocal laser scanning microscopic analysis; type: ADME, cell-based; conditions: a549, 24 h
[7] = Drug uptake in human HepG2 cells at 10 uM measured after 24 hrs by confocal laser scanning microscopic analysis; type: ADME, cell-based; conditions: hepg2, 24 h
HepG2 [8] = assay: Potency index, ratio of compound uptake to irinotecan uptake in human HepG2 cells at 10 uM measured after 24 hrs by microplate reader analysis; type: ADME, cell-based; conditions: hepg2, 24 h

SMILES	Flu intensity [1]	Drug uptake [2]	solubility [3]	IC50 (HepG2 [4])	Drug metabolism [5]	Drug uptake [6]	Drug uptake [7]	Ratio (HepG2 [8])
CCN(CCn1cc(COCCOCCOCCOCCNC(=O)c2ccc(B(O)O)cc2)nn1)c1ccc(/C=C/C2=CC(=C(C#N)C#N)c3ccccc3O2)cc1	99.42	Active	–	–	–	–	–	–
CCN(CCn1cc(COCCOCCOCCOCCNC(=O)Nc2ccc3c(c2)B(O)OC3)nn1)c1ccc(/C=C/C2=CC(=C(C#N)C#N)c3ccccc3O2)cc1	86.91	Active	–	–	–	–	–	–
CCN(CCn1cc(COCCOCCOCCOCCNC(=O)c2cccc([N+](=O)[O-])c2)nn1)c1ccc(/C=C/C2=CC(=C(C#N)C#N)c3ccccc3O2)cc1	28.12	Active	Soluble	–	–	–	–	–
CCc1c2c(nc3ccc(OC(=O)N4CCC(CNC(=O)Nc5ccc6c(c5)B(O)OC6)CC4)cc13)-c1cc3c(c(=O)n1C2)COC(=O)[C@]3(O)CC	–	–	–	840 nM	Metabolite_Notdetected	Active	Active	3
CCc1c2c(nc3ccc(OC(=O)N4CCC(CNC(=O)c5ccc(B(O)O)cc5)CC4)cc13)-c1cc3c(c(=O)n1C2)COC(=O)[C@]3(O)CC	–	–	–	1590 nM	Metabolite_Notdetected	Active	Active	7
CCN(CCn1cc(COCCOCCOCCOCCO)nn1)c1ccc(/C=C/C2=CC(=C(C#N)C#N)c3ccccc3O2)cc1	64.89	Active	Soluble	–	–	–	–	–
CCN(CCn1cc(COCCOCCOCCOCCNC(=O)c2cc(B(O)O)cc([N+](=O)[O-])c2)nn1)c1ccc(/C=C/C2=CC(=C(C#N)C#N)c3ccccc3O2)cc1	11.83	Active	–	–	–	–	–	–
CCc1c2c(nc3ccc(OC(=O)N4CCC(N5CCCCC5)CC4)cc13)-c1cc3c(c(=O)n1C2)COC(=O)[C@]3(O)CC	–	–	–	950 nM	–	–	–	–
